Results reported in patent US20250382344A1, “Soluble GLP1/GIP/NPY2 Receptor Triple Agonists” (Boehringer Ingelheim International GmH, priority 2024, published 2025).
Where two headings read alike, the source gives them in different places.

What was measured:
hGIPR = biological target: T1, hGIPR (Homo sapiens, UniProt P48546); test: hGIPR CreLuc assay in 0.5% and 100% plasma (CHO CRE-luciferase reporter cells); assay type: cell-based
T1 construct: expressed in transfected cells; host or cells: CHO CRE-luciferase reporter cells
T1 sequence (P48546 22-466): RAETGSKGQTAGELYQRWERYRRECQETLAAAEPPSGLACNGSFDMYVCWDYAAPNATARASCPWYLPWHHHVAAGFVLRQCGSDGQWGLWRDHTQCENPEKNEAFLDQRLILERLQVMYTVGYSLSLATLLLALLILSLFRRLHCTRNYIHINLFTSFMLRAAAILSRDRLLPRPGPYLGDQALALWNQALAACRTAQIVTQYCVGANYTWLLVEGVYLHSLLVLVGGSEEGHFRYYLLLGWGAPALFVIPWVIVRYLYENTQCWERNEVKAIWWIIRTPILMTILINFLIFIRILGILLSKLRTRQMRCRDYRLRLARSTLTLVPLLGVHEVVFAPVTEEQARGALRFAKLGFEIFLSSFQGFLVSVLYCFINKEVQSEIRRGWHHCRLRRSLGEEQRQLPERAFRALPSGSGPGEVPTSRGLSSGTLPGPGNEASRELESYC

[1] = Mouse PK after intravenous application; assay type: in vivo; settings: plasma, male NMRI mice, intravenous 30-60 nmol/kg, non-compartmental analysis
Experimental: Pharmacokinetic parameters of the peptides were determined after intravenous application to NMRI mice (Naval Medical Research Institute mice). Male NMRI mice were obtained from Janvier Laboratories (France) weighing 30 g to 40 g. Mice were housed in standard cages with a 12:12 hours light:dark cycle and standard food and water access ad libitum. Each test peptide was dissolved in 50 mM phosphate buffer (pH 7.4)/3.5% mannitol. Intravenous application of 30-60 nmol/kg was performed via the tail vein. Serial blood samples from conscious mice were collected from the saphenous vein in EDTA-containing vials at different time points up to 56 hours post-dosing. Subsequently, plasma was prepared by centrifugation for 5 minutes at approximately 5000 rpm and stored at −20° C. until quantification of the peptide plasma levels by liquid chromatography mass spectrometry (LC-MS). Individual plasma concentration-time profiles were analysed by a non-compartmental approach and the resulting pharmacokinetic parameters were calculated.

[2] = Solubility in 0.1 M phosphate buffer at pH 7; assay type: physicochemical; settings: 0.1 M phosphate buffer at pH 7, 10 mg/mL final peptide concentration, shaking 2 hours at room temperature, peptides as TFA-salts; measured sample pH 6.5-7.0
hGLP1R = biological target: T2, hGLP1R (Homo sapiens, UniProt P43220); test: hGLP1R CreLuc assay in 0.5% and 100% plasma (HEK-293 CRE-luciferase reporter cells); assay type: cell-based; settings: HEK-293 reporter cells
T2 construct: expressed in transfected cells; host or cells: HEK-293 CRE-luciferase reporter cells
T2 sequence (P43220 24-463): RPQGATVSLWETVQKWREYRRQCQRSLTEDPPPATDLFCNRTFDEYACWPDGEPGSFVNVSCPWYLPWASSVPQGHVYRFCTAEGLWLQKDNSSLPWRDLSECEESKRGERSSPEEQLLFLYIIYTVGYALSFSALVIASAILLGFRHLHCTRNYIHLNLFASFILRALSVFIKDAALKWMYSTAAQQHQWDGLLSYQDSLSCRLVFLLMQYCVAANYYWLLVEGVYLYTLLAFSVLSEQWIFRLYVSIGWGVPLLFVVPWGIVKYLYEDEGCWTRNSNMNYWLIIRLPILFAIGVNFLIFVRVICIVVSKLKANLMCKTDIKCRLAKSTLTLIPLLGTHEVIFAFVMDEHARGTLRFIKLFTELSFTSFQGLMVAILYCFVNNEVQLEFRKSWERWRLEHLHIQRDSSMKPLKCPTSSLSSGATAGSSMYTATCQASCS

Normal NMRI Mice = test: Effect on acute food intake in normal NMRI mice; assay type: in vivo; settings: male NMRI mice, single subcutaneous dose 100 nmol/kg, 24 hours food intake normalized to vehicle group
Experimental: Male NMRI mice were obtained from Janvier (Janvier Labs, France) or from Charles River (Charles River Research Models & Services Germany GmbH) at the age of 3 weeks. The animals get a microchip (Datamars, Slim Microchip T-SL) for individual identification after delivery. They were housed with 4 mice per cage under a 12/12 dark-light cycle, light off at 3 p.m. Room temperature was controlled to 21° C.+/−1° C. and humidity 60%+/−20%. Mice had ad libitum access to regular rodent chow (KLIBA Nafag 3040 or Altromin 1324, Brogaarden, Denmark) and tap water.
Latest transfer into the HM2-System of MBRose, Denmark (real-time monitoring system of food- and water intake) of the animals 5 days before study start, to allow acclimatization to experimental conditions. As the animals were uniquely identified with the microchips, each individual animal was identified by its own microchip upon entry and exit from the food channel via antennae. Randomization of the mice for each study group (n=8; age earliest 6 weeks old) was based on food intake (middle of last three days 24 h-interval) and bodyweight directly before start of the study. A vehicle treated (50 mM phosphate buffer pH 7.4 with 3.5% mannitol) group was included in each experiment. To have the same nutrition standard for each animal the food access was locked eight hours before dark phase. One hour before night, the animals were once treated subcutaneously with the test peptide. Food intake was reported hourly for a period of 24 hours.

[3] = 0.5% human plasma, read-out: hGIPR 0.5% hP
[4] = 0.5% human plasma, read-out: hGLP1R 0.5% hP
[5] = 100% human plasma, read-out: hGLP1R 100% hP

| EC50 (hGIPR; [3]) | MRT [1] | solubility at 2 h [2] | EC50 (hGLP1R; [4]) | EC50 (hGLP1R; [5]) | EC50 (hGIPR; 100% human plasma, read-out: hGIPR 100% hP) | Structure (SMILES) | Acute Food Intake 24 hours 100 nmol/kg [% CTL] (Normal NMRI Mice) | EC50 (hGIPR; hGIPR 0.5% hP (nM), 0.5% human plasma) | EC50 (hGIPR; hGIPR 100% hP (nM), 100% human plasma) |
| --- | --- | --- | --- | --- | --- | --- | --- | --- | --- |
| 0.7 nM | 17.2 h | 6900 µg/mL | 3 nM | 13.9 nM |  | CC[C@H](C)[C@H](NC(=O)[C@H](CC(C)C)NC(=O)[C@H](Cc1c[nH]cn1)NC(=O)[C@H](CCCNC(=N)N)NC(=O)[C@@H](NC(=O)[C@H](Cc1ccccc1)NC(=O)[C@H](C)NC(=O)C(C)(C)NC(=O)[C@H](CCC(N)=O)NC(=O)[C@H](C)NC(=O)[C@H](CCC(N)=O)NC(=O)[C@H](CCCCN)NC(=O)[C@H](CCC(=O)O)NC(=O)[C@H](CC(C)C)NC(=O)C(C)(C)NC(=O)[C@@H](NC(=O)[C@H](CO)NC(=O)[C@H](Cc1ccc(O)cc1)NC(=O)[C@H](CC(=O)O)NC(=O)[C@H](CO)NC(=O)[C@@H](NC(=O)[C@H](Cc1ccccc1)NC(=O)[C@@H](NC(=O)CNC(=O)[C@H](CCC(=O)O)NC(=O)C(C)(C)NC(=O)[C@@H](N)Cc1ccc(O)cc1)[C@@H](C)O)[C@@H](C)O)[C@@H](C)CC)C(C)C)C(=O)N[C@@H](CC(N)=O)C(=O)N[C@@H](CCCCNC(=O)CC[C@H](NC(=O)CC[C@H](NC(=O)CC[C@H](NC(=O)CC[C@H](NC(=O)CC[C@H](NC(=O)CC[C@H](NC(=O)CCCCCCCCCCCCCCCCCCC(=O)O)C(=O)O)C(=O)O)C(=O)O)C(=O)O)C(=O)O)C(=O)O)C(=O)NC(C)(C)C(=O)N[C@H](C(=O)N[C@@H](CCCNC(=N)N)C(=O)N[C@@H](CCC(N)=O)C(=O)N[C@@H](CCCNC(=N)N)C(=O)N[C@@H](Cc1ccc(O)cc1)C(N)=O)[C@@H](C)O [Compound 3, Y-Aib-E-G-T-F-T-S-D-Y-S-I-Aib-L-E-K-Q-A-Q-Aib-A-F-V-R-H-L-I-N-K(1,3)-Aib-T-R-Q-R-Y-NH2.C20DA-gGlu-gGlu-gGlu-gGlu-gGlu-gGlu(1,2)] | 74 % CTL |  |  |
| 0.1 nM |  | 10300 µg/mL | 0.2 nM |  |  | CC[C@H](C)[C@H](NC(=O)[C@H](CC(C)C)NC(=O)[C@H](Cc1c[nH]cn1)NC(=O)[C@H](CCCNC(=N)N)NC(=O)[C@@H](NC(=O)[C@H](Cc1ccccc1)NC(=O)[C@H](C)NC(=O)C(C)(C)NC(=O)[C@H](CCC(N)=O)NC(=O)[C@H](C)NC(=O)[C@H](CCC(N)=O)NC(=O)[C@H](CCCCN)NC(=O)[C@H](CCC(=O)O)NC(=O)[C@H](CC(C)C)NC(=O)[C@](C)(CC(C)C)NC(=O)[C@@H](NC(=O)[C@H](CO)NC(=O)[C@H](Cc1ccc(O)cc1)NC(=O)[C@H](CC(=O)O)NC(=O)[C@H](CO)NC(=O)[C@@H](NC(=O)[C@H](Cc1ccccc1)NC(=O)[C@@H](NC(=O)CNC(=O)[C@H](CCC(=O)O)NC(=O)C(C)(C)NC(=O)[C@@H](N)Cc1ccc(O)cc1)[C@@H](C)O)[C@@H](C)O)[C@@H](C)CC)C(C)C)C(=O)N[C@@H](CC(N)=O)C(=O)N[C@@H](CCCCNC(=O)[C@@H](N)CCCCNC(=O)CC[C@H](NC(=O)CC[C@H](NC(=O)CC[C@H](NC(=O)CC[C@H](NC(=O)CC[C@H](NC(=O)CC[C@H](NC(=O)CC[C@H](NC(=O)CCCCCCCCCCCCCCCCCCC(=O)O)C(=O)O)C(=O)O)C(=O)O)C(=O)O)C(=O)O)C(=O)O)C(=O)O)C(=O)NC(C)(C)C(=O)N[C@H](C(=O)N[C@@H](CCCNC(=N)N)C(=O)N[C@@H](CCC(N)=O)C(=O)N[C@@H](CCCNC(=N)N)C(=O)N[C@@H](Cc1ccc(O)cc1)C(N)=O)[C@@H](C)O [Compound 78, Y-Aib-E-G-T-F-T-S-D-Y-S-I-aMeL-L-E-K-Q-A-Q-Aib-A-F-V-R-H-L-I-N-K(1,3)-Aib-T-R-Q-R-Y-NH2.C20DA-gGlu-gGlu-gGlu-gGlu-gGlu-gGlu-gGlu-eLys(1,2)] | 65 % CTL |  |  |
| 0.1 nM |  | 10400 µg/mL | 0.2 nM | 1.8 nM | 1.7 nM | CC[C@H](C)[C@H](NC(=O)[C@H](Cc1ccccc1)NC(=O)[C@H](C)NC(=O)C(C)(C)NC(=O)[C@H](CCC(N)=O)NC(=O)[C@H](C)NC(=O)[C@H](CCC(N)=O)NC(=O)[C@H](CCCCN)NC(=O)[C@H](CCC(=O)O)NC(=O)[C@H](CC(C)C)NC(=O)C(C)(C)NC(=O)[C@@H](NC(=O)[C@H](CO)NC(=O)[C@H](Cc1ccc(O)cc1)NC(=O)[C@H](CC(=O)O)NC(=O)[C@H](CO)NC(=O)[C@@H](NC(=O)[C@H](Cc1ccccc1)NC(=O)[C@@H](NC(=O)CNC(=O)[C@H](CCC(=O)O)NC(=O)C(C)(C)NC(=O)[C@@H](N)Cc1ccc(O)cc1)[C@@H](C)O)[C@@H](C)O)[C@@H](C)CC)C(=O)N[C@@H](CCCNC(=N)N)C(=O)N[C@@H](Cc1c[nH]cn1)C(=O)N[C@@H](CC(C)C)C(=O)N[C@H](C(=O)N[C@@H](CC(N)=O)C(=O)N[C@@H](CCCCNC(=O)[C@@H](N)CCCCNC(=O)CC[C@H](NC(=O)CC[C@H](NC(=O)CC[C@H](NC(=O)CC[C@H](NC(=O)CC[C@H](NC(=O)CC[C@H](NC(=O)CCCCCCCCCCCCCCCCC(=O)O)C(=O)O)C(=O)O)C(=O)O)C(=O)O)C(=O)O)C(=O)O)C(=O)NC(C)(C)C(=O)N[C@H](C(=O)N[C@@H](CCCNC(=N)N)C(=O)N[C@@H](CCC(N)=O)C(=O)N[C@@H](CCCNC(=N)N)C(=O)N[C@@H](Cc1ccc(O)cc1)C(N)=O)[C@@H](C)O)[C@@H](C)CC [Compound 88, Y-Aib-E-G-T-F-T-S-D-Y-S-I-Aib-L-E-K-Q-A-Q-Aib-A-F-I-R-H-L-I-N-K(1,3)-Aib-T-R-Q-R-Y-NH2.C18DA-gGlu-gGlu-gGlu-gGlu-gGlu-gGlu-eLys(1,2)] | 47 % CTL |  |  |

| Structure (SMILES) | EC50 (hGIPR; [3]) | MRT [1] | solubility at 2 h [2] | EC50 (hGLP1R; [4]) | EC50 (hGLP1R; [5]) | EC50 (hGIPR; 100% human plasma, read-out: hGIPR 100% hP) | Acute Food Intake 24 hours 100 nmol/kg [% CTL] (Normal NMRI Mice) | EC50 (hGIPR; hGIPR 0.5% hP (nM), 0.5% human plasma) | EC50 (hGIPR; hGIPR 100% hP (nM), 100% human plasma) |
| --- | --- | --- | --- | --- | --- | --- | --- | --- | --- |
| CC[C@H](C)[C@H](NC(=O)[C@H](CC(C)C)NC(=O)[C@H](Cc1c[nH]cn1)NC(=O)[C@H](CCCNC(=N)N)NC(=O)[C@@H](NC(=O)[C@H](Cc1ccccc1)NC(=O)[C@H](C)NC(=O)C(C)(C)NC(=O)[C@H](CCC(N)=O)NC(=O)[C@H](C)NC(=O)[C@H](CCC(N)=O)NC(=O)[C@H](CCCCN)NC(=O)[C@H](CCC(=O)O)NC(=O)[C@H](CC(C)C)NC(=O)C(C)(C)NC(=O)[C@@H](NC(=O)[C@H](CO)NC(=O)[C@H](CC(C)C)NC(=O)[C@H](CC(=O)O)NC(=O)[C@H](CO)NC(=O)[C@@H](NC(=O)[C@H](Cc1ccccc1)NC(=O)[C@@H](NC(=O)CNC(=O)[C@H](CCC(=O)O)NC(=O)C(C)(C)NC(=O)[C@@H](N)Cc1ccc(O)cc1)[C@@H](C)O)[C@@H](C)O)[C@@H](C)CC)C(C)C)C(=O)N[C@@H](CC(N)=O)C(=O)N[C@@H](CCCCNC(=O)[C@@H](N)CCCCNC(=O)CC[C@H](NC(=O)CC[C@H](NC(=O)CC[C@H](NC(=O)CC[C@H](NC(=O)CC[C@H](NC(=O)CC[C@H](NC(=O)CCCCCCCCCCCCCCCCCCC(=O)O)C(=O)O)C(=O)O)C(=O)O)C(=O)O)C(=O)O)C(=O)O)C(=O)NC(C)(C)C(=O)N[C@H](C(=O)N[C@@H](CCCNC(=N)N)C(=O)N[C@@H](CCC(N)=O)C(=O)N[C@@H](CCCNC(=N)N)C(=O)N[C@@H](Cc1ccc(O)cc1)C(N)=O)[C@@H](C)O [Compound 20, Y-Aib-E-G-T-F-T-S-D-L-S-I-Aib-L-E-K-Q-A-Q-Aib-A-F-V-R-H-L-I-N-K(1,3)-Aib-T-R-Q-R-Y-NH2.C20DA-gGlu-gGlu-gGlu-gGlu-gGlu-gGlu-eLys(1,2)] |  |  | 8500 µg/mL |  |  |  | 79 % CTL | 0.4 nM | 6.9 nM |
